Laboratory results taken from patent publication US20070105839A1, “2, 4-Di (phenylamino) pyrimidines useful in the treatment of proliferative disorders” (priority 2003, published 2007).
Several values for one entry are separate records, joined by “and”; a condition that tells them apart may be missing. Equal values may be shown once. Read-outs that look alike come from different tables or passages of the source.

What was measured:
[1] = molecular target: T1, recombinant kinase domain of the ALK (Homo sapiens, UniProt Q9UM73); test: Inhibition of ALK tyrosine kinase activity; type: biochemical; settings: each compound tested twice, once each with two different preparations of ALK
T1 construct: using the recombinant kinase domain of the ALK
T1 sequence (Q9UM73 1116-1392 limits assumed): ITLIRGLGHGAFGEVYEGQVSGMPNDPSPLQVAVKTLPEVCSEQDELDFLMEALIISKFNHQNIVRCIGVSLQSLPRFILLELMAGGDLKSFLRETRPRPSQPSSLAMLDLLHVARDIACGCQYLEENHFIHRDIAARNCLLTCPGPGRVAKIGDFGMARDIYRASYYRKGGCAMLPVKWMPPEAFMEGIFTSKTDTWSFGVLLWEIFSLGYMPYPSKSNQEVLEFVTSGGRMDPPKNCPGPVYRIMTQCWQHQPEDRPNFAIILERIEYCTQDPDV
Experimental: The inhibition of ALK tyrosine kinase activity is measured using known methods, for example using the recombinant kinase domain of the ALK in analogy to the VEGF-R kinase assay described in J. Wood et al. Cancer Res. 60, 2178-2189 (2000). The table below reports the IC50 values for several compounds of the present invention. Each compound is tested twice, once each with two different preparations of ALK.

[2] = system: human NPM-ALK overexpressing murine BaF3 cells (BaF3-NPM-ALK); test: Growth inhibition of BaF3-NPM-ALK cells (Yopro staining); type: cell-based; settings: Mus musculus, 48 h, two days incubation
Excerpt: The expression of NPM-ALK is achieved by transfecting the BaF3 cell line with an expression vector pCIneo™ (Promega Corp., Madison Wis., USA ) coding for NPM-ALK and subsequent selection of G418 resistant cells. Non-transfected BaF3 cells depend on IL-3 for cell survival. In contrast NPM-ALK expressing BaF3 cells (named BaF3-NPM-ALK) can proliferate in the absence of IL-3 because they obtain proliferative signal through NPM-ALK kinase. Putative inhibitors of the NPM-ALK kinase therefore abolish the growth signal and result in antiproliferaflve activity. The antiproliferative activity of putative inhibitors of the NPM-ALK kinase can however be overcome by addition of IL-3 which provides growth signals through an NPM-ALK independent mechanism. [for an analogous cell system using FLT3 kinase see E Weisberg et al. Cancer Cell; 1, 433-443 (2002). The inhibitory activity of the compounds of formula I is determined, briefly, as follows: BaF3-NPM-ALK cells (15 000/microtitre plate well) are transferred to 96-well microtitre plates. The test compounds [dissolved in dimethyl sulfoxide (DMSO)] are added in a series of concentrations (dilution series) in such a manner that the final concentration of DMSO is not greater than 1% (v/v). After the addition, the plates are incubated for two days during which the control cultures without test compound are able to undergo two cell-division cycles. The growth of the BaF3-NPM-ALK cells is measured by means of Yopro™ staining (T ldziorek et al. J. Immunol. Methods; 185:249-58 [1995]): 25 μl of lysis buffer consisting of 20 mM sodium citrate, pH 4.0, 26.8 mM sodium chloride, 0.4% NP40, 20 mM EDTA and […] to each well. Cell lysis was completed within 60 min at room temperature and total amount of Yopro bound to DNA was determined by measurement using the Cytofluor II 96-well reader (PerSeptive Biosystems) with the following settings: Excitation (nm) 485/20 and Emission (nm) 530/25.
IC50 values are determined by a computer-aided system using the formula: ICr50=[(ABStest−ABSstart)/(ABScontrol−ABSstart)]×100.

[3] = system: human KARPAS-299 lympoma cell line; test: Antiproliferative action in KARPAS-299 lymphoma cell line; type: cell-based; settings: KARPAS-299 cell line, same methodology as BaF3-NPM-ALK
[4] = with IL3, read-out: BaF3 NPM-ALK with IL3 IC50
[5] = without IL3, read-out: BaF3 NPM-ALK without IL3 IC50

IC50 [1] | IC50 [2, 4] [nM] | IC50 [2, 5] [nM] | IC50 [3] [nM] | melting point [°C] | Compound
46 nM and 90 nM | 2600 | 560 | 330 |  | CCCNS(=O)(=O)c1ccccc1Nc1ccnc(Nc2cc(OC)c(OC)c(OC)c2)n1 [Ex. 58]
 |  |  |  | 72 to 75 | COc1cc(Nc2nccc(Nc3cccc(C)c3S(N)(=O)=O)n2)cc(OC)c1OC [Example 3, 2-methyl-6-[2-(3,4,5-Trimethoxy-phenylamino)-pyrimidin-4-ylamino]-benzenesulfonamide]
48 nM and 83 nM | 1400 | 550 | 270 |  | CN(C)S(=O)(=O)c1ccccc1Nc1ccnc(Nc2cccc(OCCn3ccnc3)c2)n1 [Ex. 48]
180 nM and 86 nM | 2700 | 410 | 150 |  | COc1cc(Nc2nccc(Nc3ccccc3S(=O)(=O)N(C)C)n2)cc(OC)c1OC [Ex. 56]
